# Measurements reported in ChEMBL document CHEMBL1143232, “Antiviral activities against herpes simplex virus type 1 by HPH derivatives and their structure-activity relationships” (Bioorg Med Chem Lett, 2008).
# Columns and labels:
# [1] = Cytotoxicity against african green monkey Vero cells after 69 hrs by Alamar blue assay; type: cell-based; conditions: chlorocebus sabaeus
# [2] = system: Human alphaherpesvirus 1; test: Antiviral activity against HSV1 KOS in african green monkey Vero cells by plaque reduction assay; type: functional, organism-based; conditions: Human alphaherpesvirus 1, KOS
# [3] = Partition coefficient, log P of the compound; type: physicochemical; conditions: octanol/water
# [4] = Ratio of CC50 for african green monkey Vero cells to EC50 for HSV1 KOS; type: functional
SMILES,CC50 at 69 h [1],EC50 [2],logP [3],Ratio CC50/EC50 [4]
O=C(O)CCNC(=O)c1cc(-c2cccc3ccccc23)cc(C(=O)NCCC(=O)O)n1,> 100 µM,> 100 µM,–,–
O=C(CCNC(=O)c1cccc(C(=O)NCCC(=O)NO)n1)NO,> 100 µM,> 100 µM,–,–
COC(=O)C(Cc1c[nH]cn1)NCc1cc(N(C)C)cc(C(=O)NC(Cc2c[nH]cn2)C(=O)OC)n1 (configuration not stated),> 100 µM,> 100 µM,–,–
CC(C)(C)SCCNC(=S)c1cccc(C(=S)NCCSC(C)(C)C)n1,37 µM,15 µM,4.4,2.5
CC(C)(C)SCCNC(=O)c1cccc(C(=O)NCCSC(C)(C)C)n1,500 µM,79 µM,2.7,6.3
CSCCNC(=O)c1cccc(C(=O)NCCSC)n1,> 100 µM,> 100 µM,–,–
O=C(O)CCNC(=O)c1cccc(C(=O)NCCC(=O)O)n1,> 100 µM,> 100 µM,–,–
O=C(CCNC(=O)c1cc(-c2cccc3ccccc23)cc(C(=O)NCCC(=O)NO)n1)NO,> 100 µM,> 100 µM,–,–
Nc1nc2c(ncn2COCCO)c(=O)[nH]1 [ACYCLOVIR],> 100 µM,6 µM,–,–
